Laboratory results as given in the NIST ThermoML archive (doi:10.1021/je049534w).

Conditions: Liquid; for speed of sound: Linear variable-path acoustic interferometer

CCCCn1cc[n+](C)c1.F[B-](F)(F)F [1-butyl-3-methylimidazolium tetrafluoroborate]
Conditions | mass density [kg/m3] | speed of sound [m/s]
283.15 K, 100 kPa | – | 1599.5
283.15 K, 4956 kPa | – | 1612.5
283.15 K, 9954 kPa | – | 1626.2
283.15 K, 20130 kPa | – | 1653.1
283.15 K, 30003 kPa | – | 1678.3
283.15 K, 44948 kPa | – | 1714.7
283.15 K, 59705 kPa | – | 1749
283.15 K, 79788 kPa | – | 1793
283.15 K, 99235 kPa | – | 1833.6
283.15 K, 124380 kPa | – | 1882.9
283.15 K, 151416 kPa | – | 1932.2
293.15 K, 100 kPa | – | 1570.2
293.15 K, 5094 kPa | – | 1584
293.15 K, 10075 kPa | – | 1597.7
293.15 K, 20080 kPa | – | 1624.4
293.15 K, 59673 kPa | – | 1721
293.15 K, 98994 kPa | – | 1806.1
293.15 K, 151068 kPa | – | 1907.3
298.34 K, 100 kPa | 1205.03 | –
298.34 K, 700 kPa | 1205.32 | –
298.34 K, 5280 kPa | 1207.44 | –
298.34 K, 10600 kPa | 1209.87 | –
298.34 K, 15920 kPa | 1212.24 | –
298.34 K, 20540 kPa | 1214.26 | –
298.34 K, 25000 kPa | 1216.18 | –
298.34 K, 30710 kPa | 1218.62 | –
298.34 K, 35190 kPa | 1220.47 | –
298.34 K, 40660 kPa | 1222.73 | –
298.34 K, 44370 kPa | 1224.21 | –
298.34 K, 49660 kPa | 1226.32 | –
298.34 K, 54340 kPa | 1228.16 | –
298.34 K, 59230 kPa | 1230.05 | –
303.15 K, 100 kPa | – | 1544.9
303.15 K, 5080 kPa | – | 1558.6
303.15 K, 10091 kPa | – | 1572.5
303.15 K, 20063 kPa | – | 1599.5
303.15 K, 59767 kPa | – | 1697
303.15 K, 99007 kPa | – | 1782.6
303.15 K, 124609 kPa | – | 1834
303.23 K, 100 kPa | 1201.29 | –
303.23 K, 8780 kPa | 1205.3 | –
303.23 K, 11170 kPa | 1206.4 | –
303.23 K, 15230 kPa | 1208.22 | –
303.23 K, 20270 kPa | 1210.43 | –
303.23 K, 24890 kPa | 1212.44 | –
303.23 K, 30670 kPa | 1214.92 | –
303.23 K, 34770 kPa | 1216.66 | –
303.23 K, 40020 kPa | 1218.85 | –
303.23 K, 44310 kPa | 1220.61 | –
303.23 K, 49500 kPa | 1222.73 | –
303.23 K, 54490 kPa | 1224.75 | –
303.23 K, 59820 kPa | 1226.85 | –
313.01 K, 100 kPa | 1194.59 | –
313.01 K, 4130 kPa | 1196.19 | –
313.01 K, 10180 kPa | 1198.82 | –
313.01 K, 15650 kPa | 1201.26 | –
313.01 K, 21300 kPa | 1203.75 | –
313.01 K, 24580 kPa | 1205.19 | –
313.01 K, 30110 kPa | 1207.62 | –
313.01 K, 35390 kPa | 1209.88 | –
313.01 K, 44700 kPa | 1213.84 | –
313.01 K, 49720 kPa | 1215.92 | –
313.01 K, 54430 kPa | 1217.91 | –
313.01 K, 59450 kPa | 1219.95 | –
313.15 K, 100 kPa | – | 1525.2
313.15 K, 5091 kPa | – | 1539.3
313.15 K, 10185 kPa | – | 1554
313.15 K, 20070 kPa | – | 1581
313.15 K, 59719 kPa | – | 1679.3
313.15 K, 99014 kPa | – | 1765.8
313.15 K, 123975 kPa | – | 1816.6
313.15 K, 151204 kPa | – | 1870
322.85 K, 100 kPa | 1187.85 | –
322.85 K, 3730 kPa | 1189.5 | –
322.85 K, 6220 kPa | 1190.68 | –
322.85 K, 10020 kPa | 1192.47 | –
322.85 K, 14870 kPa | 1194.68 | –
322.85 K, 20450 kPa | 1197.2 | –
322.85 K, 25400 kPa | 1199.38 | –
322.85 K, 31090 kPa | 1201.87 | –
322.85 K, 34850 kPa | 1203.51 | –
322.85 K, 41130 kPa | 1206.23 | –
322.85 K, 44880 kPa | 1207.85 | –
322.85 K, 49830 kPa | 1209.95 | –
322.85 K, 54520 kPa | 1211.91 | –
322.85 K, 59920 kPa | 1214.2 | –
323.15 K, 100 kPa | – | 1503.4
323.15 K, 4999 kPa | – | 1517.8
323.15 K, 10202 kPa | – | 1533.4
323.15 K, 20046 kPa | – | 1561.4
323.15 K, 59977 kPa | – | 1662.1
323.15 K, 99014 kPa | – | 1748.8
323.15 K, 123945 kPa | – | 1798.9
323.15 K, 151374 kPa | – | 1853.2
332.73 K, 100 kPa | 1181.05 | –
332.73 K, 4130 kPa | 1182.92 | –
332.73 K, 6350 kPa | 1183.98 | –
332.73 K, 11210 kPa | 1186.3 | –
332.73 K, 15220 kPa | 1188.15 | –
332.73 K, 20540 kPa | 1190.55 | –
332.73 K, 25280 kPa | 1192.7 | –
332.73 K, 30760 kPa | 1195.16 | –
332.73 K, 35080 kPa | 1197.05 | –
332.73 K, 40110 kPa | 1199.23 | –
332.73 K, 44860 kPa | 1201.24 | –
332.73 K, 49840 kPa | 1203.35 | –
332.73 K, 54760 kPa | 1205.7 | –
332.73 K, 59130 kPa | 1207.2 | –
